From patent publication US10508104B2, “6-hydroxy-5-(phenyl/heteroarylsulfonyl)pyrimidin-4(1H)-one as APJ agonists” (Bristol-Myers Squibb Company, priority 2016, dated 2019) come the findings set out here.

Sequence of human APJ receptor (P35414 whole entry): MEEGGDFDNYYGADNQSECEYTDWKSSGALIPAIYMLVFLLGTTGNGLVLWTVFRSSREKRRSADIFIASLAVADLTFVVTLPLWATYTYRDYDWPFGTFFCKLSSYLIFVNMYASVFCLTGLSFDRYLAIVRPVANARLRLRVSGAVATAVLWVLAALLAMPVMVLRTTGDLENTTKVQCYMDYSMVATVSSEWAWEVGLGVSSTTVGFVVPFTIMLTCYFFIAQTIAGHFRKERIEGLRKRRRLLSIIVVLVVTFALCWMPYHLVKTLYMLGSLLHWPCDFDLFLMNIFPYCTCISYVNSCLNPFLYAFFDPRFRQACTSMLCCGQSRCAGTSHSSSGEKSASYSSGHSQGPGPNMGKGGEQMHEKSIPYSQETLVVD

For the first experiment, the target named is human APJ receptor (Homo sapiens (Human), UniProt P35414). Kind of experiment: Intracellular cAMP accumulation assay (APJ hcAMP, HTRF). It counts as cell-based. Conditions: HEK293 cells stably expressing human APJ receptor; inhibition of forskolin-mediated cAMP production; read-out: Human APJ cAMP EC50 Potency range. In a few lines:
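HEK293 cells stably expressing human APJ, 5,000 per well, incubated 30 min at rt with compound, […] and 2 μM forskolin. cAMP measured by HTRF against a cAMP standard curve as inhibition of forskolin-driven production. EC50 from variable-slope sigmoidal fit.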
For `CCOCc1nc(=O)c(S(=O)(=O)c2ccc(C(C)(C)C)cc2)c(O)n1-c1c(CC)cccc1CC` [Example 361, 5-(4-tert-butylbenzenesulfonyl)-1-(2,6-diethylphenyl)-2-(ethoxymethyl)-6-hydroxy-1,4-dihydropyrimidin-4-one], the concentration for a half-maximal effect (EC50) is 0.01 to 10 nM. Take `CCCCc1nc(=O)c(S(=O)(=O)c2ccc(-c3ccnc(F)c3C)cc2)c(O)n1[C@@H](CC)c1ccnc(C#N)c1` [Example 526, 4-[(1S)-1-{2-butyl-5-[4-(2-fluoro-3-methylpyridin-4-yl)benzenesulfonyl]-6-hydroxy-4-oxo-1,4-dihydropyrimidin-1-yl}propyl]pyridine-2-carbonitrile]: the EC50 lay in the range of 0.01 to 10 nM. Consider `CCOCc1nc(=O)c(S(=O)(=O)c2ccc(-c3ccncc3C)cc2)c(O)n1[C@@H](CC)c1cccc(C#N)c1` [Example 434, 3-[(1S)-1-[2-(ethoxymethyl)-6-hydroxy-5-[4-(3-methylpyridin-4-yl)benzenesulfonyl]-4-oxo-1,4-dihydropyrimidin-1-yl]propyl]benzonitrile], for which the concentration for a half-maximal effect (EC50) lay within 0.01 to 10 nM. In the case of `CCCCc1nc(=O)c(S(=O)(=O)c2ccc(-c3ccc(C(=O)NC)cc3F)cc2)c(O)n1[C@@H](CC)c1cccc(C#N)c1` [Example 545, 4′-({2-butyl-1-[(1S)-1-(3-cyanophenyl)propyl]-6-hydroxy-4-oxo-1,4-dihydropyrimidin-5-yl}sulfonyl)-2-fluoro-N-methyl-[1,1′-biphenyl]-4-carboxamide], the EC50 was 0.01 to 10 nM. As to `CCCCc1nc(=O)c(S(=O)(=O)c2ccc(-c3ccncc3C)cc2)c(O)n1[C@H]1CCc2c(C#N)cccc21` [Example 541, (1S)-1-{2-butyl-6-hydroxy-5-[4-(3-methylpyridin-4-yl)benzenesulfonyl]-4-oxo-1,4-dihydropyrimidin-1-yl}-2,3-dihydro-1H-indene-4-carbonitrile], the EC50 lay in the range of 0.01 to 10 nM.

As to `CCCCc1nc(=O)c(S(=O)(=O)C2CCN(C(=O)c3nnc(C)o3)CC2)c(O)n1-c1c(OC)cccc1OC` [Example 110, 2-Butyl-1-(2,6-dimethoxyphenyl)-6-hydroxy-5-((1-(5-methyl-1,3,4-oxadiazole-2-carbonyl)piperidin-4-yl)sulfonyl)pyrimidin-4(1H)-one], the EC50 lay within 0.01 to 10 nM. In the case of `CCCCc1nc(=O)c(S(=O)(=O)c2ccc(-c3ccncc3C)cc2)c(O)n1[C@@H](CC)c1cc(F)cc(C#N)c1` [Example 450, 3-[(1S)-1-{2-butyl-6-hydroxy-5-[4-(3-methylpyridin-4-yl)benzenesulfonyl]-4-oxo-1,4-dihydropyrimidin-1-yl}propyl]-5-fluorobenzonitrile], the concentration for a half-maximal effect (EC50) fell in the range of 0.01 to 10 nM. Regarding `CC[C@@H](c1cccc(C#N)c1)n1c(COC(C)C)nc(=O)c(S(=O)(=O)c2ccc(-c3ccccc3C(N)=O)cc2)c1O` [Example 400, 4′-({1-[(1S)-1-(3-cyanophenyl)propyl]-6-hydroxy-4-oxo-2-[(propan-2-yloxy)methyl]-1,4-dihydropyrimidin-5-yl}sulfonyl)-[1,1′-biphenyl]-2-carboxamide], the EC50 lay in the range of 0.01 to 10 nM. `CC(C)OCc1nc(=O)c(S(=O)(=O)c2ccc(-c3ccc(F)cc3C(N)=O)cc2)c(O)n1[C@H](c1cccc(C#N)c1)C1CC1` [Example 417, 4′-({1-[(S)-(3-cyanophenyl)(cyclopropyl)methyl]-6-hydroxy-4-oxo-2-[(propan-2-yloxy)methyl]-1,4-dihydropyrimidin-5-yl}sulfonyl)-4-fluoro-[1,1′-biphenyl]-2-carboxamide]: the EC50 was 0.01 to 10 nM. In the case of `CCCCc1nc(=O)c(S(=O)(=O)c2ccc(-c3ccc(F)nc3C)cc2)c(O)n1[C@@H]1CCc2ccc(C#N)cc21` [Example 546, (3R)-3-{2-butyl-5-[4-(6-fluoro-2-methylpyridin-3-yl)benzenesulfonyl]-6-hydroxy-4-oxo-1,4-dihydropyrimidin-1-yl}-2,3-dihydro-1H-indene-5-carbonitrile], the EC50 lay in the range of 100 to 300 nM. As for `COC[C@@H](c1cc(F)cc(F)c1)n1c(COC(C)C)nc(=O)c(S(=O)(=O)c2ccc(-c3ccncc3C)cc2)c1O` [Example 377, 1-[(1R)-1-(3,5-difluorophenyl)-2-methoxyethyl]-6-hydroxy-5-[4-(3-methylpyridin-4-yl)benzenesulfonyl]-2-[(propan-2-yloxy)methyl]-1,4-dihydropyrimidin-4-one], the EC50 lay in the range of 0.01 to 10 nM. On to `CCCCc1nc(=O)c(S(=O)(=O)c2ccc(-c3ccnc(F)c3C)cc2)c(O)n1[C@@H](COC)c1cccc(C(N)=O)c1` [Example 412, 3-[(1R)-1-{2-butyl-5-[4-(2-fluoro-3-methylpyridin-4-yl)benzenesulfonyl]-6-hydroxy-4-oxo-1,4-dihydropyrimidin-1-yl}-2-methoxyethyl]benzamide], for which the concentration giving a half-maximal response (EC50) is 0.01 to 10 nM.

In the case of `CCCCc1nc(=O)c(S(=O)(=O)c2ccc(-c3ccc(F)nc3C)cc2)c(O)n1[C@@H](CC)c1ccc(F)c(C#N)c1` [Example 440, 5-[(1S)-1-{2-butyl-5-[4-(6-fluoro-2-methylpyridin-3-yl)benzenesulfonyl]-6-hydroxy-4-oxo-1,4-dihydropyrimidin-1-yl}propyl]-2-fluorobenzonitrile], the EC50 fell in the range of 0.01 to 10 nM.

The experiment is the same for the next values; noted with them: human APJ, cAMP accumulation; read-out: Human APJ cAMP EC50 Potency range.
On to `CCCCc1nc(O)c(S(=O)(=O)c2ccc(Br)cc2)c(=O)n1[C@@H](CC)c1cccc(F)c1` [Example 216, 5-(4-bromobenzenesulfonyl)-2-butyl-3-[(1S)-1-(3-fluorophenyl)propyl]-6-hydroxy-3,4-dihydropyrimidin-4-one], for which the EC50 fell in the range of 0.01 to 10 nM.

Turning to `CCCCc1nc(=O)c(S(=O)(=O)c2ccc(-c3cccnc3C)cc2)c(O)n1[C@@H](CC)c1cccc(C#N)c1` [Example 234, 3-[(1S)-1-{2-butyl-6-hydroxy-5-[4-(2-methylpyridin-3-yl)benzenesulfonyl]-4-oxo-1,4-dihydropyrimidin-1-yl}propyl]benzonitrile], the EC50 fell in the range of 0.01 to 10 nM.

For the compound `CCCCc1nc(=O)c(S(=O)(=O)c2ccc(-c3cncc(F)c3)cc2)c(O)n1[C@@H](CC)c1cccc(F)c1` [Example 214, 2-butyl-1-[(1S)-1-(3-fluorophenyl)propyl]-5-[4-(5-fluoropyridin-3-yl)benzenesulfonyl]-6-hydroxy-1,4-dihydropyrimidin-4-one], the EC50 was 0.01 to 10 nM. Same read-out and setting: to `CCCCc1nc(=O)c(S(=O)(=O)c2ccc(-c3ccc(F)nc3C)cc2)c(O)n1[C@@H](CC)c1cccc2c1OCO2` [Example 264, 1-[(1S)-1-(2H-1,3-benzodioxol-4-yl)propyl]-2-butyl-5-[4-(6-fluoro-2-methylpyridin-3-yl)benzenesulfonyl]-6-hydroxy-1,4-dihydropyrimidin-4-one] belongs 0.01 to 10 nM.

Staying with this experiment, now noted: human APJ, intracellular cAMP accumulation; read-out: Human APJ cAMP EC50 Potency range.
As to `CCCCc1nc(=O)c(S(=O)(=O)c2ccc(-c3ccc(N4CCOCC4)nc3)cc2)c(O)n1-c1c(OC)cccc1OC` [Example 28, 2-butyl-1-(2,6-dimethoxyphenyl)-6-hydroxy-5-{4-[6-(morpholin-4-yl)pyridin-3-yl]benzenesulfonyl}-1,4-dihydropyrimidin-4-one], the EC50 is 0.01 to 10 nM. The same measure, in the same setting: to `CCCCc1nc(=O)c(S(=O)(=O)c2ccc(-c3ccncc3C)cc2)c(O)n1-c1c(OC)cccc1OC` [Example 40, 2-butyl-1-(2,6-dimethoxyphenyl)-6-hydroxy-5-[4-(3-methylpyridin-4-yl)benzenesulfonyl]-1,4-dihydropyrimidin-4-one] belongs 0.01 to 10 nM. Regarding `CCCCc1nc(=O)c(S(=O)(=O)c2ccc(C)cc2)c(O)n1[C@@H](COC)c1ccccc1` [Example 137, 2-butyl-6-hydroxy-1-[(1R)-2-methoxy-1-phenylethyl]-5-(4-methylbenzenesulfonyl)-1,4-dihydropyrimidin-4-one], the half-maximal effective concentration (EC50) is 0.01 to 10 nM.

Consider `CCCCc1nc(=O)c(S(=O)(=O)c2ccc(-c3ccc(F)cc3C)cc2)c(O)n1-c1c(OC)cccc1OC` [Example 26, 2-butyl-1-(2,6-dimethoxyphenyl)-5-[4-(4-fluoro-2-methylphenyl)benzenesulfonyl]-6-hydroxy-1,4-dihydropyrimidin-4-one], for which the EC50 lay in the range of 0.01 to 10 nM. The same measure, in the same setting: with `CCCCc1nc(=O)c(S(=O)(=O)c2ccc(-c3ccc(Cl)c(F)c3)cc2)c(O)n1-c1c(OC)cccc1OC` [Example 36, 2-butyl-5-[4-(4-chloro-3-fluorophenyl)benzene-sulfonyl]-1-(2,6-dimethoxyphenyl)-6-hydroxy-1,4-dihydropyrimidin-4-one] the figure was 0.01 to 10 nM; with `CCCCc1nc(=O)c(S(=O)(=O)c2ccc(-c3cn(C)nc3C(F)(F)F)cc2)c(O)n1-c1c(OC)cccc1OC` [Example 9, 2-butyl-1-(2,6-dimethoxyphenyl)-6-hydroxy-5-{4-[1-methyl-3-(trifluoromethyl)-1H-pyrazol-4-yl]benzenesulfonyl}-1,4-dihydropyrimidin-4-one], 0.01 to 10 nM. For `CCCCc1nc(=O)c(S(=O)(=O)c2ccc(-c3ccc(OC(F)(F)F)cc3)cc2)c(O)n1-c1c(OC)cccc1OC` [Example 55, 2-butyl-1-(2,6-dimethoxyphenyl)-6-hydroxy-5-{4-[4-(trifluoromethoxy)phenyl]benzenesulfonyl}-1,4-dihydropyrimidin-4-one], the EC50 lay in the range of 0.01 to 10 nM.

Regarding `CCCCc1nc(=O)c(S(=O)(=O)c2ccc(-c3cc(F)ccc3F)cc2)c(O)n1-c1c(OC)cccc1OC` [Example 35, 2-butyl-5-[4-(2,5-difluorophenyl)benzenesulfonyl]-1-(2,6-dimethoxyphenyl)-6-hydroxy-1,4-dihydropyrimidin-4-one], the EC50 was in the range of 0.01 to 10 nM. On the same count and under the same terms, with `CCCCc1nc(=O)c(S(=O)(=O)c2ccc(-c3cncc(F)c3)cc2)c(O)n1-c1c(OC)cccc1OC` [Example 50, 2-butyl-1-(2,6-dimethoxyphenyl)-5-[4-(5-fluoropyridin-3-yl)benzenesulfonyl]-6-hydroxy-1,4-dihydropyrimidin-4-one] the figure was 0.01 to 10 nM; with `CCCCc1nc(=O)c(S(=O)(=O)c2ccc(-c3ccncc3C)cc2)c(O)n1C(c1ccccc1)C1CC1` (stereo not drawn) [Example 201], 0.01 to 10 nM.
